Data: publication PMC4467398, “Preclinical antitumor activity of ST7612AA1: a new oral thiol-based histone deacetylase (HDAC) inhibitor” (Oncotarget, 2014)

Test system: DOHH2 and TMD8 DLBCL cells
Experiment: Gene expression profiling (HumanHT-12 v4 BeadChip, limma), ST7612AA1 300 nM 8 hrs vs DMSO
Type: cell-based, human
Conditions: 300 nM 8 hrs vs DMSO

**Q.** Which results are given for CC(=O)SCCCCC[C@H](NC(=O)[C@H]1CCC(=O)N1)C(=O)Nc1ccccc1 [ST7612AA1]?
**A.** log ratio ATP6V0C (probe ILMN_1773849): 8.22E-01; log ratio ATP6V1G2 (probe ILMN_1654541): 8.47E-01; log ratio ATP6V1H (ILMN_2403730): 6.35E-01; log ratio ATP7B (probe ILMN_1722056): 8.88E-01; log ratio AVEN (ILMN_1710216): -1.49E+00; log ratio AVPI1 (probe ILMN_1671731): 8.94E-01; log ratio AZI1 (probe ILMN_1746206): 7.59E-01; log ratio BAG2 (ILMN_3244893): -9.02E-01; log ratio BCCIP (ILMN_1771966): -9.03E-01; log ratio BCLAF1 (ILMN_1775192): -8.85E-01; log ratio BCLAF1 (ILMN_2357272): -8.42E-01; log ratio BEND3 (ILMN_2375032): -9.71E-01; log ratio BHLHB2 (ILMN_1768534): -5.96E-01; log ratio BID (ILMN_1763386): -1.18E+00; log ratio BID (ILMN_2372413): -8.80E-01; log ratio BIK (probe ILMN_1770505): 7.57E-01; log ratio BLK (ILMN_1668277): -8.77E-01; log ratio BLVRB (probe ILMN_1797793): 8.74E-01; log ratio BMF (ILMN_1695354): 6.49E-01; log ratio BNIP3L (probe ILMN_1718961): 8.34E-01; log ratio BPHL (probe ILMN_1657746): 8.91E-01; log ratio BRIX1 (ILMN_1679800): -1.03E+00; log ratio BRIX1 (ILMN_2155172): -1.19E+00; log ratio BRPF3 (ILMN_1658800): -7.82E-01; log ratio C3orf34 (probe ILMN_1665217): 6.96E-01; log ratio C4orf32 (probe ILMN_1700257): 8.83E-01; log ratio C7orf47 (ILMN_1741475): 6.62E-01; log ratio C7orf55 (ILMN_3238680): -1.06E+00; log ratio C8orf13 (ILMN_1687213): 6.60E-01; log ratio C8orf33 (ILMN_2098325): -8.34E-01; log ratio C9orf45 (ILMN_1719998): 6.75E-01; log ratio C10orf32 (ILMN_2151056): -8.22E-01; log ratio C12orf24 (ILMN_2180371): -1.09E+00; log ratio C12orf52 (probe ILMN_1667857): 6.98E-01; log ratio C13orf15 (probe ILMN_1658494): 7.74E-01; log ratio C13orf25 (ILMN_1660754): -8.20E-01; log ratio C14orf4 (ILMN_1804396): 6.53E-01; log ratio C14orf173 (probe ILMN_2393450): 7.70E-01; log ratio C14orf179 (probe ILMN_1756877): 7.81E-01; log ratio C16orf57 (ILMN_1765880): 6.49E-01; log ratio C17orf58 (ILMN_1712985): 6.08E-01; log ratio C17orf58 (ILMN_2398926): 6.52E-01; log ratio C18orf45 (ILMN_1690442): 6.69E-01; log ratio C18orf55 (ILMN_1748916): -8.33E-01; log ratio C19orf2 (ILMN_2406892): -6.10E-01; log ratio C20orf108 (ILMN_1708016): 6.16E-01; log ratio C20orf177 (ILMN_1718712): -9.03E-01; log ratio CA2 (probe ILMN_2199439): 7.93E-01; log ratio CABLES1 (ILMN_1653001): -5.93E-01; log ratio CALM1 (ILMN_1778242): 6.20E-01; log ratio CAMLG (probe ILMN_1714599): 7.30E-01; log ratio CARHSP1 (ILMN_1809477): 5.98E-01; log ratio CASC1 (ILMN_1708983): 6.58E-01; log ratio CASC4 (probe ILMN_2325574): 6.85E-01; log ratio CBX7 (probe ILMN_1657361): 7.49E-01; log ratio CCDC6 (ILMN_1745904): 6.24E-01; log ratio CCDC16 (ILMN_2154603): -8.59E-01; log ratio CCDC24 (probe ILMN_1718771): 6.89E-01; log ratio CCDC43 (ILMN_1743783): -5.96E-01; log ratio CCDC58 (ILMN_1686920): -1.25E+00; log ratio CCDC59 (ILMN_1662318): -8.48E-01; log ratio CCDC86 (ILMN_1792681): -9.35E-01; log ratio CCDC92 (probe ILMN_1731107): 8.05E-01; log ratio CCDC128 (ILMN_1667356): 6.21E-01; log ratio CCNYL1 (ILMN_1810069): 6.58E-01; log ratio CCNYL1 (ILMN_2166524): 6.44E-01; log ratio CCR7 (ILMN_1715131): 6.79E-01; log ratio CD58 (ILMN_1785268): -9.16E-01; log ratio CD58 (ILMN_2147517): -9.82E-01; log ratio CD74 (ILMN_1736567): 6.75E-01; log ratio CD74 (probe ILMN_1761464): 8.47E-01; log ratio CD74 (probe ILMN_2379644): 7.27E-01; log ratio CDC2L6 (probe ILMN_1676891): 6.96E-01; log ratio CDC25A (ILMN_1711005): -8.24E-01; log ratio CDC42EP5 (probe ILMN_1774982): 8.75E-01; log ratio CDK2AP2 (probe ILMN_1690653): 8.01E-01; log ratio CDK4 (ILMN_1689001): -8.13E-01; log ratio CECR1 (probe ILMN_1751851): 8.43E-01; log ratio CEP70 (ILMN_1741350): 6.16E-01; log ratio CERK (ILMN_1767475): 6.70E-01; log ratio CHCHD4 (ILMN_1813938): -1.36E+00; log ratio CHD7 (ILMN_1677376): 6.71E-01; log ratio CHRAC1 (ILMN_1722390): -6.19E-01; log ratio CHSY1 (ILMN_1791576): 6.80E-01; log ratio CLCC1 (probe ILMN_1671933): 8.48E-01; log ratio CLECL1 (ILMN_1782729): -1.24E+00; log ratio CLIC4 (probe ILMN_2063586): 7.49E-01; log ratio CLIP2 (ILMN_2352190): 6.09E-01; log ratio CMIP (ILMN_1738075): 6.47E-01; log ratio CMTM8 (probe ILMN_1710124): 7.00E-01; log ratio CNFN (ILMN_1803838): 6.20E-01; log ratio CNIH2 (ILMN_1698733): 6.32E-01; log ratio COCH (ILMN_1711514): -6.14E-01; log ratio COIL (ILMN_1688034): -9.94E-01; log ratio COTL1 (probe ILMN_1788283): 6.87E-01; log ratio CPOX (ILMN_3240389): 6.04E-01; log ratio CRIP1 (probe ILMN_1656920): 8.56E-01; log ratio CRYM (probe ILMN_1779241): 8.32E-01; log ratio CSRP1 (probe ILMN_1811921): 7.01E-01; log ratio CSTB (probe ILMN_1761797): 8.06E-01; log ratio CTPS (ILMN_1783285): -1.21E+00; log ratio CTSB (probe ILMN_2359742): 8.56E-01; log ratio CUEDC1 (ILMN_1676665): 5.93E-01; log ratio CUL1 (ILMN_1749629): -1.05E+00; log ratio CXADR (probe ILMN_1796925): 8.18E-01; log ratio CXCL16 (ILMN_1728478): 6.11E-01; log ratio CXorf26 (ILMN_1768176): -1.34E+00; log ratio CXorf57 (probe ILMN_1703279): 8.25E-01; log ratio CYB5R1 (probe ILMN_1729237): 7.59E-01; log ratio CYB5R3 (probe ILMN_1740441): 7.06E-01; log ratio CYP2R1 (probe ILMN_2119774): 7.88E-01; log ratio DAD1 (ILMN_1731619): 6.40E-01; log ratio DCTD (ILMN_1802456): -1.08E+00; log ratio DCTN6 (ILMN_1744059): -8.19E-01; log ratio DCXR (ILMN_1681437): 6.03E-01; log ratio DDN (ILMN_1673450): -6.03E-01; log ratio DDX21 (ILMN_1735461): -9.88E-01; log ratio DEF8 (probe ILMN_1767509): 8.37E-01; log ratio DGCR6L (probe ILMN_3245688): 7.47E-01; log ratio DGKQ (ILMN_1793017): 6.08E-01; log ratio DHRS2 (ILMN_1725726): 6.46E-01; log ratio DIS3L (ILMN_1795822): -1.05E+00; log ratio DKC1 (ILMN_1671257): -1.02E+00; log ratio DNLZ (ILMN_2112049): -1.09E+00; log ratio DNMT3B (probe ILMN_1794692): 8.14E-01; log ratio DOK4 (ILMN_1774261): 6.37E-01; log ratio DPF1 (ILMN_1769961): 6.38E-01; log ratio DPH2 (ILMN_2375418): -1.21E+00; log ratio DSTN (probe ILMN_1706426): 7.52E-01; log ratio DTX1 (ILMN_1689002): -5.96E-01; log ratio DUS3L (ILMN_1723235): -1.36E+00; log ratio DYNC1H1 (probe ILMN_1780302): 6.97E-01; log ratio DYNLL2 (probe ILMN_1772796): 8.61E-01; log ratio DYRK1A (ILMN_2374293): -5.97E-01; log ratio DYRK3 (probe ILMN_2400322): 6.97E-01; log ratio DYRK3 (probe ILMN_2400326): 8.26E-01; log ratio EARS2 (ILMN_1758750): -5.91E-01; log ratio EBI2 (ILMN_1798706): -8.22E-01; log ratio EBI2 (ILMN_2168217): -9.10E-01; log ratio ECHS1 (probe ILMN_1718132): 7.78E-01; log ratio EEF1B2 (ILMN_1685678): -8.07E-01; log ratio EEF1E1 (ILMN_1725105): -8.38E-01; log ratio EGR1 (probe ILMN_1762899): 8.42E-01; log ratio ELOF1 (probe ILMN_1723185): 7.14E-01; log ratio EMG1 (ILMN_1797074): -1.12E+00; log ratio ENC1 (probe ILMN_1779147): 7.93E-01; log ratio ENO2 (probe ILMN_1765796): 7.11E-01; log ratio EPB41L5 (ILMN_1770245): 6.78E-01; log ratio EPN1 (ILMN_1772981): 6.50E-01; log ratio ERRFI1 (probe ILMN_1665510): 7.44E-01
